In patent US9549932B2, “2-(morpholin-4-yl)-1,7-naphthyridines” (BAYER PHARMA AKTIENGESELLSCHAFT, priority 2014, dated 2017):

The compounds below were run against full-length human ATR protein (Homo sapiens (Human), UniProt Q13535) (assay: Binding assay ATR (TR-FRET tracer displacement)). Details: tracer A, TR-FRET; read-out: ATR binding (tracer A) IC50.
Summary of the method: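 Full-length human GST-ATR co-purified with ATRIP, pre-complexed 30 min at 22 °C with anti-GST-Tb antibody, then pre-bound with compound 10 min. Tracer A or B added (2 µl of 100 nM solution), 30 min at 22 °C.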

full-length human ATR protein, sequence (Q13535 other isoform, or with tags, fused parts or gaps): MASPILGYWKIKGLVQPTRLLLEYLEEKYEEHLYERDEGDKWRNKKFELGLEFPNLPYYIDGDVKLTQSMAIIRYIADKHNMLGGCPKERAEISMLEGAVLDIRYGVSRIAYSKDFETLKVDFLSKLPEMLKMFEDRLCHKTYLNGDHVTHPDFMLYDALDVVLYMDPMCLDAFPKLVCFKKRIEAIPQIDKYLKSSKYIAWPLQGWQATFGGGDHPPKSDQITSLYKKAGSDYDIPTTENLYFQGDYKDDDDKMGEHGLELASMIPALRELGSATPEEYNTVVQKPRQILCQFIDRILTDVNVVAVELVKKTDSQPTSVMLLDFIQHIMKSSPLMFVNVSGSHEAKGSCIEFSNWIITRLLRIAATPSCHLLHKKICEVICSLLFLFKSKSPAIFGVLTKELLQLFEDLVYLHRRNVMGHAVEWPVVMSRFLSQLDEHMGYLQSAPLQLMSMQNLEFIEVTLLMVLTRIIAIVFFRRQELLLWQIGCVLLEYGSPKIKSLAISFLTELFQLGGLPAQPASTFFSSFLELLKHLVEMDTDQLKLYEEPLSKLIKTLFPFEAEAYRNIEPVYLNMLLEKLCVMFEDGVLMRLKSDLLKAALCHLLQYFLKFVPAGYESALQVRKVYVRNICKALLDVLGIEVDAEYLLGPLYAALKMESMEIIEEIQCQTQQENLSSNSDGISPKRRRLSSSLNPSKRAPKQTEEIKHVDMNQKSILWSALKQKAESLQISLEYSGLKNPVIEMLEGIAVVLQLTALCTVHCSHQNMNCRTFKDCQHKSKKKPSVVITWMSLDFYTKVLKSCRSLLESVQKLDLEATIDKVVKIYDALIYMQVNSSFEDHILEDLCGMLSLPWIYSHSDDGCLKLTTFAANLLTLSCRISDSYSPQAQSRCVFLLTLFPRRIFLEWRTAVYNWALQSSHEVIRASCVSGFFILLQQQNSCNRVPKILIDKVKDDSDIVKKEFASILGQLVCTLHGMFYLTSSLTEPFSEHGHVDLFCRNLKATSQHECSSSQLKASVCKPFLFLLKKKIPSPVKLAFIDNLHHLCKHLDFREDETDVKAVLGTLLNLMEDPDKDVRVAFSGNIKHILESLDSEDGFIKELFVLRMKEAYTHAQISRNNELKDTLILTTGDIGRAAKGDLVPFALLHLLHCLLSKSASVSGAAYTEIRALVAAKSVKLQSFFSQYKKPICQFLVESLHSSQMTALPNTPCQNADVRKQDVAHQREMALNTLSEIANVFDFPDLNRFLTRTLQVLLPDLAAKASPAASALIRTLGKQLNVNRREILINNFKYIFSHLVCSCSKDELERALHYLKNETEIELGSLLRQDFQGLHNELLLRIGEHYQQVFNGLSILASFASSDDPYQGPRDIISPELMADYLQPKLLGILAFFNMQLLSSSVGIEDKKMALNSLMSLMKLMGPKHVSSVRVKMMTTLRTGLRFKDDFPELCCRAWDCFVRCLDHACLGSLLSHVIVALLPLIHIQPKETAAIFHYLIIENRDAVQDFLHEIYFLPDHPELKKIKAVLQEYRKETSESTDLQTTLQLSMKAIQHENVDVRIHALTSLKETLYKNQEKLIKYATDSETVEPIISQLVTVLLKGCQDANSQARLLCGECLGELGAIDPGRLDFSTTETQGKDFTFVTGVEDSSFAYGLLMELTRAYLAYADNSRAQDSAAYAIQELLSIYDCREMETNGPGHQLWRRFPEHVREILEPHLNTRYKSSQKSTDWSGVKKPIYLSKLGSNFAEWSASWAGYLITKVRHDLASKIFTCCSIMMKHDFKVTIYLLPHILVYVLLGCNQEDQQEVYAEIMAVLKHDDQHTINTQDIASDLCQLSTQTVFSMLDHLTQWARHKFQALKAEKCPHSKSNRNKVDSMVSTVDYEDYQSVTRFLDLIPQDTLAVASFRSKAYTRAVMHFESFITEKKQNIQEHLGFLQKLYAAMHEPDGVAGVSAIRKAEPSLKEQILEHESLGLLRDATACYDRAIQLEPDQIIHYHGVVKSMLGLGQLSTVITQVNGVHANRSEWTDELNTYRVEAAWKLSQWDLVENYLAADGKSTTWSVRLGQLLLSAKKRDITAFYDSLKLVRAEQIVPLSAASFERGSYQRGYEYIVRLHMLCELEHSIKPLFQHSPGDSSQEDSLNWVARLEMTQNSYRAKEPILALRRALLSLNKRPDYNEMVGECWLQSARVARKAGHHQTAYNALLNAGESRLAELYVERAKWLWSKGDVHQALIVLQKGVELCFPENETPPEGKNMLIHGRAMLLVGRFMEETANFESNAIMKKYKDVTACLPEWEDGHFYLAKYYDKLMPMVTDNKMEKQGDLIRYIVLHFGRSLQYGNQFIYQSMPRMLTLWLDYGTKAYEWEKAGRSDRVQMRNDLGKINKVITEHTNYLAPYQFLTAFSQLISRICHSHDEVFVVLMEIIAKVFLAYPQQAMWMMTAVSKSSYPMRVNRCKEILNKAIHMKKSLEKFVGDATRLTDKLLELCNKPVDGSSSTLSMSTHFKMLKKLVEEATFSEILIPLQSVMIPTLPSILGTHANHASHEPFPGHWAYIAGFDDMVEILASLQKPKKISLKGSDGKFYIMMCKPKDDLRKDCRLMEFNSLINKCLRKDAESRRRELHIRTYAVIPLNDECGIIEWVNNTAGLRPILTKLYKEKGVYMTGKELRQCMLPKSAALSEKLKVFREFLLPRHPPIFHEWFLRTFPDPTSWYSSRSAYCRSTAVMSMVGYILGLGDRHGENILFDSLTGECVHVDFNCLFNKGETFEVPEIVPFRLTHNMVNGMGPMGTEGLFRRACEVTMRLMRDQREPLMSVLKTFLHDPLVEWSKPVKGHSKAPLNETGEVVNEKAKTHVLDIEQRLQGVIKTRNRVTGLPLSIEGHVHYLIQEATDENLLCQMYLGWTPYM
full-length human ATR protein, sequence (Q8WXE1 other isoform, or with tags, fused parts or gaps partner): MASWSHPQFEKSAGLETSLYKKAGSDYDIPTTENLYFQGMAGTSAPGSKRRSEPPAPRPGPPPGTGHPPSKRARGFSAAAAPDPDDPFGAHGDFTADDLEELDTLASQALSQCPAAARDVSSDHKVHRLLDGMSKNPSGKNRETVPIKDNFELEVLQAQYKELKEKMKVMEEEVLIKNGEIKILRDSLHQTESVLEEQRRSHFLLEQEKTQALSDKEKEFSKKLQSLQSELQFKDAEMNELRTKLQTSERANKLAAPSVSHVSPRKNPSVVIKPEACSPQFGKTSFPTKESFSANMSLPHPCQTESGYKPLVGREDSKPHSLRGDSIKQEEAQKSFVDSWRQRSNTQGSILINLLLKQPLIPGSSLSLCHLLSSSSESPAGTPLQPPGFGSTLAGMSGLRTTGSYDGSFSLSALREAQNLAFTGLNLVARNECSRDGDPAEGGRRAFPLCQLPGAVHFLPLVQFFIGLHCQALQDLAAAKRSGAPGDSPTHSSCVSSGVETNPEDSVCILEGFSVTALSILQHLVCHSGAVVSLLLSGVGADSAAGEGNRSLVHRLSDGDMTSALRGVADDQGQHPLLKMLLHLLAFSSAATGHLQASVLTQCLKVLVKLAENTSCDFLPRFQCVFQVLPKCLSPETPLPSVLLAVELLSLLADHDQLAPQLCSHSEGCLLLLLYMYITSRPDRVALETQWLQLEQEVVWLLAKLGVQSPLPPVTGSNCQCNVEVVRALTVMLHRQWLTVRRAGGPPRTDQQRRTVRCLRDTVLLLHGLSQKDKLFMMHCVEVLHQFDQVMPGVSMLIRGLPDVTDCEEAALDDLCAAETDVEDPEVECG

Question: Which IC50 does the source give for `COc1ccncc1-c1cc(N2CCOCC2)nc2c(-c3ccn[nH]3)nccc12` [Example 375, 4-(4-methoxypyridin-3-yl)-2-(morpholin-4-yl)-8-(1H-pyrazol-5-yl)-1,7-naphthyridine] here?
Answer: The IC50 was 0.894 µM.

Question: `CS(=O)(=O)c1cccc(-c2cc(N3CCOCC3)nc3c(-c4cc[nH]n4)nccc23)c1` [Example 15, 4-(3-methanesulphonylphenyl)-2-(morpholin-4-yl)-8-(1H-pyrazol-3-yl)-[1,7]naphthyridine] was tested. Which IC50 did it give?
Answer: Its IC50 is 0.163 µM.

Question: `Cc1cncc(-c2cc(N3CCOCC3)nc3c(-c4ccn[nH]4)nccc23)c1` [Example 352, 4-(5-methylpyridin-3-yl)-2-(morpholin-4-yl)-8-(1H-pyrazol-5-yl)-1,7-naphthyridine] was tested. Which IC50 did it give?
Answer: Its IC50 is 0.175 µM.

Question: For `CN(C)C(=O)c1ccccc1-c1cc(N2CCOCC2)nc2c(-c3ccn[nH]3)nccc12` [Example 290, N,N-dimethyl-2-[2-(morpholin-4-yl)-8-(1H-pyrazol-5-yl)-1,7-naphthyridin-4-yl]benzamide], which IC50 is on record?
Answer: Its IC50 is 1.19 µM.

Question: With `C[C@@H]1COCCN1c1cc(N=S(C)(=O)c2ccccc2F)c2ccnc(-c3ccn[nH]3)c2n1` (stereo partly drawn) [Example 139, 4-{[(2-fluorophenyl)(methyl)oxido-λ^6-sulfanylidene]amino}-2-[(3R)-3-methylmorpholin-4-yl]-8-(1H-pyrazol-5-yl)-1,7-naphthyridine] as the compound, how does the IC50 read?
Answer: Its IC50 is 0.0417 µM.

Question: `C[C@@H]1COCCN1c1cc(N=S(C)(=O)c2ccccc2F)c2ccnc(-c3ccn[nH]3)c2n1` (single isomer, unassigned) [Example 140] was tested. Which IC50 did it give?
Answer: The IC50 was 0.0765 µM.

Question: Which IC50 does the source give for `O=S1(=Nc2cc(N3CCOCC3)nc3c(-c4ccn[nH]4)nccc23)CCCCC1` [Example 280, N-[2-(morpholin-4-yl)-8-(1H-pyrazol-5-yl)-1,7-naphthyridin-4-yl]hexahydro-1λ^4-thiopyran-1-imine 1-oxide] here?
Answer: Its IC50 is 0.0468 µM.

Question: With `C[C@@H]1COCCN1c1cc(OCCCS(C)(=O)=O)c2ccnc(-c3ccn[nH]3)c2n1` [Example 197, 2-[(3R)-3-methylmorpholin-4-yl]-4-[3-(methylsulfonyl)propoxy]-8-(1H-pyrazol-5-yl)-1,7-naphthyridine] as the compound, how does the IC50 read?
Answer: Its IC50 is 0.0724 µM.

Question: How did the IC50 turn out when `CC(C)Cn1nccc1-c1cc(N2CCOC[C@H]2C)nc2c(-c3ccn[nH]3)nccc12` [Example 146, 4-(1-isobutyl-1H-pyrazol-5-yl)-2-[(3R)-3-methylmorpholin-4-yl]-8-(1H-pyrazol-5-yl)-1,7-naphthyridine] was run?
Answer: The IC50 was 0.0357 µM.

Question: How did the IC50 turn out when `C[C@@H]1COCCN1c1cc(C2(S(C)(=O)=O)CC2)c2ccnc(-c3ccn[nH]3)c2n1` [Example 286, 2-[(3R)-3-methylmorpholin-4-yl]-4-[1-(methylsulfonyl)cyclopropyl]-8-(1H-pyrazol-5-yl)-1,7-naphthyridine] was run?
Answer: Its IC50 is 0.0145 µM.

Question: With `Cc1cc(COc2cc(N3CCOCC3)nc3c(-c4ccn[nH]4)nccc23)no1` [Example 49, 4-[(5-methyl-1,2-oxazol-3-yl)methoxy]-2-(morpholin-4-yl)-8-(1H-pyrazol-5-yl)-1,7-naphthyridine] as the compound, how does the IC50 read?
Answer: The IC50 was 0.2 µM.

Question: For `CCn1nccc1-c1cc(N2CCOC[C@H]2C)nc2c(-c3ccn[nH]3)nccc12` [Example 69, 4-(1-ethyl-1H-pyrazol-5-yl)-2-[(3R)-3-methylmorpholin-4-yl]-8-(1H-pyrazol-5-yl)-1,7-naphthyridine], which IC50 is on record?
Answer: The IC50 was 0.00534 µM.

Question: Which IC50 does the source give for `CSc1ccc(-c2cc(N3CCOC[C@H]3C)nc3c(-c4ccn[nH]4)nccc23)c(C)n1` [Example 115, 4-[2-methyl-6-(methylsulfanyl)pyridin-3-yl]-2-[(3R)-3-methylmorpholin-4-yl]-8-(1H-pyrazol-5-yl)-1,7-naphthyridine] here?
Answer: The IC50 was 0.00744 µM.

Question: With `Nc1ccccc1-c1cc(N2CCOCC2)nc2c(-c3ccn[nH]3)nccc12` [Example 343, 2-[2-(morpholin-4-yl)-8-(1H-pyrazol-5-yl)-1,7-naphthyridin-4-yl]aniline] as the compound, how does the IC50 read?
Answer: The IC50 was 0.0198 µM.

Question: How did the IC50 turn out when `Cc1cccc(-c2cc(N3CCOC[C@H]3C)nc3c(-c4ccn[nH]4)nccc23)n1` [Example 164, 2-[(3R)-3-methylmorpholin-4-yl]-4-(6-methylpyridin-2-yl)-8-(1H-pyrazol-5-yl)-1,7-naphthyridine] was run?
Answer: The IC50 was 0.161 µM.

Question: Which IC50 does the source give for `CCn1cnc(-c2cc(N3CCOC[C@H]3C)nc3c(-c4ccn[nH]4)nccc23)c1` [Example 153, 4-(1-ethyl-1H-imidazol-4-yl)-2-[(3R)-3-methylmorpholin-4-yl]-8-(1H-pyrazol-5-yl)-1,7-naphthyridine] here?
Answer: Its IC50 is 0.0547 µM.

Question: `C/C=C/c1cc(N2CCOCC2)nc2c(-c3ccn[nH]3)nccc12` [Example 325, 2-(morpholin-4-yl)-4-[(1E)-prop-1-en-1-yl]-8-(1H-pyrazol-5-yl)-1,7-naphthyridine] was tested. Which IC50 did it give?
Answer: Its IC50 is 0.0344 µM.

Question: For `Cc1cc(-c2cc(N3CCOC[C@H]3C)nc3c(-c4ccn[nH]4)nccc23)c(C)n1C` [Example 264, 2-[(3R)-3-methylmorpholin-4-yl]-8-(1H-pyrazol-5-yl)-4-(1,2,5-trimethyl-1H-pyrrol-3-yl)-1,7-naphthyridine], which IC50 is on record?
Answer: Its IC50 is 0.0255 µM.

Question: Which IC50 does the source give for `C[C@@H]1COCCN1c1cc(-c2ccc(F)cn2)c2ccnc(-c3ccn[nH]3)c2n1` [Example 163, 4-(5-fluoropyridin-2-yl)-2-[(3R)-3-methylmorpholin-4-yl]-8-(1H-pyrazol-5-yl)-1,7-naphthyridine] here?
Answer: Its IC50 is 0.107 µM.

Question: Which IC50 does the source give for `OC[C@H]1CCCN(c2cc(N3CCOCC3)nc3c(-c4ccn[nH]4)nccc23)C1` (stereo in doubt) [Example 437, {1-[2-(morpholin-4-yl)-8-(1H-pyrazol-5-yl)-1,7-naphthyridin-4-yl]piperidin-3-yl}methanol] here?
Answer: The IC50 was 0.118 µM.

Question: Which IC50 does the source give for `C[C@@H]1COCCN1c1cc(N2CCN(S(C)(=O)=O)CC2)c2ccnc(-c3ccn[nH]3)c2n1` [Example 82, 2-[(3R)-3-methylmorpholin-4-yl]-4-[4-(methylsulfonyl)piperazin-1-yl]-8-(1H-pyrazol-5-yl)-1,7-naphthyridine] here?
Answer: Its IC50 is 0.0049 µM.

Question: Which IC50 does the source give for `Cc1csc(-c2cc(N3CCOC[C@H]3C)nc3c(-c4ccn[nH]4)nccc23)c1` [Example 239, 2-[(3R)-3-methylmorpholin-4-yl]-4-(4-methylthiophen-2-yl)-8-(1H-pyrazol-5-yl)-1,7-naphthyridine] here?
Answer: Its IC50 is 0.0203 µM.

Question: `Cc1nn(C)cc1-c1cc(N2CCOC[C@H]2C)nc2c(-c3ccn[nH]3)nccc12` [Example 249, 4-(1,3-dimethyl-1H-pyrazol-4-yl)-2-[(3R)-3-methylmorpholin-4-yl]-8-(1H-pyrazol-5-yl)-1,7-naphthyridine] was tested. Which IC50 did it give?
Answer: The IC50 was 0.0137 µM.

Question: Which IC50 does the source give for `Cc1cc(-c2cc(N3CCOCC3)nc3c(-c4ccn[nH]4)nccc23)cc(C)c1O` [Example 311, 2,6-dimethyl-4-[2-(morpholin-4-yl)-8-(1H-pyrazol-5-yl)-1,7-naphthyridin-4-yl]phenol] here?
Answer: The IC50 was 0.376 µM.

Question: Which IC50 does the source give for `c1cc(-c2nccc3c(-c4ccsc4)cc(N4CCOCC4)nc23)[nH]n1` [Example 372, 2-(morpholin-4-yl)-8-(1H-pyrazol-5-yl)-4-(thiophen-3-yl)-1,7-naphthyridine] here?
Answer: The IC50 was 0.134 µM.

Question: Which IC50 does the source give for `C[C@@H]1COCCN1c1cc(N2CCNCC2)c2ccnc(-c3ccn[nH]3)c2n1` [Example 66, 2-[(3R)-3-methylmorpholin-4-yl]-4-(piperazin-1-yl)-8-(1H-pyrazol-5-yl)-1,7-naphthyridine] here?
Answer: The IC50 was 0.0872 µM.

Question: With `CSc1cc(N2CCOC[C@H]2C)nc2c(-c3ccn[nH]3)nccc12` [Example 63, 2-[(3R)-3-methylmorpholin-4-yl]-4-(methylsulfanyl)-8-(1H-pyrazol-5-yl)-1,7-naphthyridine] as the compound, how does the IC50 read?
Answer: The IC50 was 0.0807 µM.

Question: `COc1ccc(F)cc1-c1cc(N2CCOCC2)nc2c(-c3ccn[nH]3)nccc12` [Example 339, 4-(5-fluoro-2-methoxyphenyl)-2-(morpholin-4-yl)-8-(1H-pyrazol-5-yl)-1,7-naphthyridine] was tested. Which IC50 did it give?
Answer: Its IC50 is 0.0896 µM.

Question: Which IC50 does the source give for `C[C@@H]1COCCN1c1cc(-c2ccn(C)c2)c2ccnc(-c3ccn[nH]3)c2n1` [Example 262, 2-[(3R)-3-methylmorpholin-4-yl]-4-(1-methyl-1H-pyrrol-3-yl)-8-(1H-pyrazol-5-yl)-1,7-naphthyridine] here?
Answer: Its IC50 is 0.0422 µM.

Question: `O=C(NC1CC1)c1ccc(-c2cc(N3CCOCC3)nc3c(-c4ccn[nH]4)nccc23)cc1` [Example 291, N-cyclopropyl-4-[2-(morpholin-4-yl)-8-(1H-pyrazol-5-yl)-1,7-naphthyridin-4-yl]benzamide] was tested. Which IC50 did it give?
Answer: The IC50 was 0.0837 µM.

Question: Which IC50 does the source give for `C[C@@H]1CN[C@@H](C)CN1c1cc(N2CCOCC2)nc2c(-c3ccn[nH]3)nccc12` (relative stereo) [Example 178, 4-[(trans)-2,5-dimethylpiperazin-1-yl]-2-(morpholin-4-yl)-8-(1H-pyrazol-5-yl)-1,7-naphthyridine] here?
Answer: The IC50 was 0.377 µM.

Question: Which IC50 does the source give for `COc1ncccc1-c1cc(N2CCOCC2)nc2c(-c3ccn[nH]3)nccc12` [Example 362, 4-(2-methoxypyridin-3-yl)-2-(morpholin-4-yl)-8-(1H-pyrazol-5-yl)-1,7-naphthyridine] here?
Answer: Its IC50 is 0.295 µM.

Question: Which IC50 does the source give for `Clc1ccc(-c2cc(N3CCOCC3)nc3c(-c4ccn[nH]4)nccc23)cc1` [Example 316, 4-(4-chlorophenyl)-2-(morpholin-4-yl)-8-(1H-pyrazol-5-yl)-1,7-naphthyridine] here?
Answer: The IC50 was 0.0532 µM.

Question: How did the IC50 turn out when `c1cncc(-c2cc(N3CCOCC3)nc3c(-c4ccn[nH]4)nccc23)c1` [Example 350, 2-(morpholin-4-yl)-8-(1H-pyrazol-5-yl)-4-(pyridin-3-yl)-1,7-naphthyridine] was run?
Answer: Its IC50 is 0.162 µM.

Question: How did the IC50 turn out when `C[C@@H]1COCCN1c1cc(-c2cncc3ccccc23)c2ccnc(-c3ccn[nH]3)c2n1` [Example 237, 4-(isoquinolin-4-yl)-2-[(3R)-3-methylmorpholin-4-yl]-8-(1H-pyrazol-5-yl)-1,7-naphthyridine] was run?
Answer: The IC50 was 0.0182 µM.

Question: For `c1cc(-c2cc(N3CCOCC3)nc3c(-c4ccn[nH]4)nccc23)ccn1` [Example 221, 2-(morpholin-4-yl)-8-(1H-pyrazol-5-yl)-4-(pyridin-4-yl)-1,7-naphthyridine], which IC50 is on record?
Answer: The IC50 was 0.196 µM.

Question: How did the IC50 turn out when `C[C@@H]1CN(c2cc(N3CCOCC3)nc3c(-c4ccn[nH]4)nccc23)CCO1` [Example 162, 4-[(2R)-2-methylmorpholin-4-yl]-2-(morpholin-4-yl)-8-(1H-pyrazol-5-yl)-1,7-naphthyridine] was run?
Answer: Its IC50 is 0.1 µM.

Same assay, conditions: tracer B, TR-FRET; read-out: ATR binding (tracer B) IC50

Question: How did the IC50 turn out when `CS(=O)(=O)c1cccc(-c2cc(N3CCOCC3)nc3c(-c4cc[nH]n4)nccc23)c1` [Example 15, 4-(3-methanesulphonylphenyl)-2-(morpholin-4-yl)-8-(1H-pyrazol-3-yl)-[1,7]naphthyridine] was run?
Answer: The IC50 was 0.174 µM.

Question: `CSc1cc(N2CCOC[C@H]2C)nc2c(-c3ccn[nH]3)nccc12` [Example 63, 2-[(3R)-3-methylmorpholin-4-yl]-4-(methylsulfanyl)-8-(1H-pyrazol-5-yl)-1,7-naphthyridine] was tested. Which IC50 did it give?
Answer: The IC50 was 0.0307 µM.
